Values of other authors as cited in patent US11400105B2, “Anti-inflammatory properties of marine lipid compositions” (AKER BIOMARINE ANTARCTIC AS, priority 2006, dated 2022).

Columns and labels:
pre-term infants = conditions: for absorption: ref [8]
[1] = ethyl esters (4 g/d); ref [12]

Row | absorption (pre-term infants) [%] | relative absorption based on the area under the concentration curve [1] [%] | relative absorption compared to oleic acid calculated from peak concentrations [1] [%] | absorption of DHA from egg lecithin (pre-term infants; ref [7]) [%] | absorption of DHA from triglycerides (pre-term infants; ref [7]) [%] | SMILES
1 | 75 | – | – | – | – | CCCCCC=CCC=CCC=CCC=CCCCC(=O)O [AA, 5,8,11,14-eicosatetraenoic acid]
2 | 62 | 93 | 100 | 90 | 80 | CC/C=C\C/C=C\C/C=C\C/C=C\C/C=C\C/C=C\CCC(=O)O [DHA, 4,7,10,13,16,19-docosahexanoic acid]
3 | – | 91 | 94 | – | – | CCC=CCC=CCC=CCC=CCC=CCCCC(=O)O [EPA, 5,8,11,14,17-eicosapentaenoic acid]
